Measured values as given in ChEMBL document CHEMBL1201862, “PubChem BioAssay data set” (2004).
Calls of active or inactive are those of the source.

How the values were obtained:
[1] = M. tuberculosis growth inhibition, HTS (AID 449762); type: functional
[2] = molecular target: Complement C1s subcomponent (Homo sapiens, UniProt P09871); assay: Complement C1s ELISA. [Related pubchem assays: 538, 787 ]; type: functional
Aspartyl aminopeptidase = Aspartyl aminopeptidase (Plasmodium falciparum 3D7, UniProt Q8I2J3); assay: Counterscreen for inhibitors of M1 and M17 aminopeptidases: QFRET-based biochemical high throughput dose response assay for inhibitors of the Plasmodium falciparum M18 Aspartyl Aminopeptidase (PFM18AAP). [Related PubChem assays: 1619 (Screening assay (M17LAP inhibitors).), 1445 (Screening assay (M1AAP inhibitors).)]
Sequence of Aspartyl aminopeptidase (Q8I2J3 whole entry): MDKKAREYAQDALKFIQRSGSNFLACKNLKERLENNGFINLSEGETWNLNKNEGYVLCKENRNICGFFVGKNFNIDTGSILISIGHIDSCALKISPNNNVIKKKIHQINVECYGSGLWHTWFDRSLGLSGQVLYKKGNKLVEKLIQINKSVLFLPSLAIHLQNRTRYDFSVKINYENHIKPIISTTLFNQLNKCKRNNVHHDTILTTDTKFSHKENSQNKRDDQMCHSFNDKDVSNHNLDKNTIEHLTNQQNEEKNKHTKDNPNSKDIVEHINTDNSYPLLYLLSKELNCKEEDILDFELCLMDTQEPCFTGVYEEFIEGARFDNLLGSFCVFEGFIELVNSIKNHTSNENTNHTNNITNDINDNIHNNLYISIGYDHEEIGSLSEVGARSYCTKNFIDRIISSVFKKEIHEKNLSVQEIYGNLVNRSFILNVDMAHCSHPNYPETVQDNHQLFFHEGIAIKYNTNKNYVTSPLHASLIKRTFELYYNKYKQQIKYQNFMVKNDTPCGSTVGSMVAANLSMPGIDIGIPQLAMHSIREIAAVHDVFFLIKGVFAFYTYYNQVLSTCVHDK

[3] = molecular target: T1, Replicative DNA helicase DnaB (Mycobacterium tuberculosis, UniProt P9WMR3); assay: DnaB intein splicing inhibitors, dose response, biochemical, cell-free fluorescence (AID 449749); type: functional
T1 sequence (P9WMR3 whole entry): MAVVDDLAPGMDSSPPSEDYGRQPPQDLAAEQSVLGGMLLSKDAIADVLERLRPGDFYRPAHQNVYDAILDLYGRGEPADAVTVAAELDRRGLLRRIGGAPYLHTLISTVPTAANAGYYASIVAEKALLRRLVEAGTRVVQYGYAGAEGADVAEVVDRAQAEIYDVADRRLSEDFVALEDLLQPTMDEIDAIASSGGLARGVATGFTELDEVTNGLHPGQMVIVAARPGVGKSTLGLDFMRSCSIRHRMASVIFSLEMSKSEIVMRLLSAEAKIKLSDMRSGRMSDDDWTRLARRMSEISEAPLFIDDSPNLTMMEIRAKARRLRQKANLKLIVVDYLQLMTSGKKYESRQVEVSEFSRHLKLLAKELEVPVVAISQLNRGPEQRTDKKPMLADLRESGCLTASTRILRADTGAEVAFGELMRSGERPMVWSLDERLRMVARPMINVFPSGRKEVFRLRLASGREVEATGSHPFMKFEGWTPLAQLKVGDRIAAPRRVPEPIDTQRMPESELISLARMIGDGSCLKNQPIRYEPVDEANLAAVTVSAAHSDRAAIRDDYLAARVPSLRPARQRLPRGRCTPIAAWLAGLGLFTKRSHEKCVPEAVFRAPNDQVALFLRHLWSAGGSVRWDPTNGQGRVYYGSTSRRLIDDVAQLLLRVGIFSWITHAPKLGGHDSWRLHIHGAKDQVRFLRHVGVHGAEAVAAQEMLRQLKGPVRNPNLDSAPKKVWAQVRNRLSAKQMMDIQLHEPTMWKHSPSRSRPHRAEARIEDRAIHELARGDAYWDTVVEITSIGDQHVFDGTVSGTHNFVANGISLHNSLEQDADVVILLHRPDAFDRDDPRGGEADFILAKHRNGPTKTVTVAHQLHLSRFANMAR

Leucine aminopeptidase = molecular target: T2, Leucine aminopeptidase (Plasmodium falciparum 3D7, UniProt Q8IL11); assay: P. falciparum M17LAP inhibitors, primary screen, biochemical, fluorogenic H-Leu-NHMec substrate, 1536-well (AID 1619); type: functional
T2 sequence (Q8IL11 whole entry): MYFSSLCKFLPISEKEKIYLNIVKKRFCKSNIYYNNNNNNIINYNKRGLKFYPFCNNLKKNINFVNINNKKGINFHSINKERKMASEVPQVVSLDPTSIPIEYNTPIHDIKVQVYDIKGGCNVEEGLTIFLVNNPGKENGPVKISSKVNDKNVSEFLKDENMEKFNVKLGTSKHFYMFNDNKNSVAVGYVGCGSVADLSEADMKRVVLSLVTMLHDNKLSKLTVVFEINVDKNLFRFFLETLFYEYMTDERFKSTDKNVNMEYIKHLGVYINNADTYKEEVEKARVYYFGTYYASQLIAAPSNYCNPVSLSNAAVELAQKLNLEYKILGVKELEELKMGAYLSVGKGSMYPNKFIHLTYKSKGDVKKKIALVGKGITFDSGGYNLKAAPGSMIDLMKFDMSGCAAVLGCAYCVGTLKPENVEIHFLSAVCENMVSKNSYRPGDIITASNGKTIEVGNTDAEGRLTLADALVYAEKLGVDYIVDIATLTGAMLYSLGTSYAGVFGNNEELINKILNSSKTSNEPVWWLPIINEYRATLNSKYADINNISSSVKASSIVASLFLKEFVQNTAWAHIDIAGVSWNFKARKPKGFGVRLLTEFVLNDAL

Protein RecA = molecular target: T3, Protein RecA (Mycobacterium tuberculosis, UniProt P9WHJ3); assay: Fluorescence Cell-Free Homogeneous Dose Retest to Identify Inhibitors of RecA-Intein Splicing Activity. [Related pubchem assays (depositor defined):AID2097, AID2223, AID489010, AID492950]; type: functional
T3 sequence (P9WHJ3 whole entry): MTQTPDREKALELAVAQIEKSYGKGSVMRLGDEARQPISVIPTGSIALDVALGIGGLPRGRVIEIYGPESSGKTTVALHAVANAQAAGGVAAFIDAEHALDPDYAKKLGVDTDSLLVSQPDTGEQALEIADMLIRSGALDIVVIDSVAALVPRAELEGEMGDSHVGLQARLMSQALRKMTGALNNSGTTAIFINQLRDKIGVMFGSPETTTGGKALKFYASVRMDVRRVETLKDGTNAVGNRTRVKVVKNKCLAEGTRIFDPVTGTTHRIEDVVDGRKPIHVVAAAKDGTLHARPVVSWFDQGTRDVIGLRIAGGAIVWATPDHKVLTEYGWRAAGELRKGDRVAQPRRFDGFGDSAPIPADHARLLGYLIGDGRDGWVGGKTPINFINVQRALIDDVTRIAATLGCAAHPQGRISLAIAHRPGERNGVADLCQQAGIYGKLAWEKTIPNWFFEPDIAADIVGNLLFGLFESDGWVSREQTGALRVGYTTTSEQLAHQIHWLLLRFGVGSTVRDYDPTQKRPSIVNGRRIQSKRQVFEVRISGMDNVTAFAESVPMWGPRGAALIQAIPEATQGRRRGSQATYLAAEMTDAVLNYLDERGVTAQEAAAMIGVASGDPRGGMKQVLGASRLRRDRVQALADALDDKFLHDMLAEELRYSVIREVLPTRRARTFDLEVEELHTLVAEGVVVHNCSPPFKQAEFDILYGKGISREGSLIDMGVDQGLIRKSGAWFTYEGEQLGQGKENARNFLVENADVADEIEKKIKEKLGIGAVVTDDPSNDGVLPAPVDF

Procathepsin L = Procathepsin L (Homo sapiens, UniProt P07711); assay: cathepsin L inhibitors, dose response, counter-screen for M1/M17 aminopeptidase inhibitor project, biochemical, QFRET, 1536-well (AID 2214)
Sequence of Procathepsin L (P07711 whole entry): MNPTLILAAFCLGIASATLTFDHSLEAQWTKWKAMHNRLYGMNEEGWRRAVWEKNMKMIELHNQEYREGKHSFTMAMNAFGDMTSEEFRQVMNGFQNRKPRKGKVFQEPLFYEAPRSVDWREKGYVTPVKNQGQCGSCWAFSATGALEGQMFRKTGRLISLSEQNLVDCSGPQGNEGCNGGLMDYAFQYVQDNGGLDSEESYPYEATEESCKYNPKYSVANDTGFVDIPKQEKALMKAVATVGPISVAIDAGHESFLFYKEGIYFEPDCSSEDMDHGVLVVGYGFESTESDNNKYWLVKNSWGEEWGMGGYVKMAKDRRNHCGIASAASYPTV

[4] = molecular target: T4, Sphingosine 1-phosphate receptor 2 (Homo sapiens, UniProt O95136); assay: Dose Response Cell Based Assay for Agonists of the S1P2 Receptor. [Related pubchem assays: 729, 736, 843 ]; type: functional
T4 sequence (O95136 whole entry): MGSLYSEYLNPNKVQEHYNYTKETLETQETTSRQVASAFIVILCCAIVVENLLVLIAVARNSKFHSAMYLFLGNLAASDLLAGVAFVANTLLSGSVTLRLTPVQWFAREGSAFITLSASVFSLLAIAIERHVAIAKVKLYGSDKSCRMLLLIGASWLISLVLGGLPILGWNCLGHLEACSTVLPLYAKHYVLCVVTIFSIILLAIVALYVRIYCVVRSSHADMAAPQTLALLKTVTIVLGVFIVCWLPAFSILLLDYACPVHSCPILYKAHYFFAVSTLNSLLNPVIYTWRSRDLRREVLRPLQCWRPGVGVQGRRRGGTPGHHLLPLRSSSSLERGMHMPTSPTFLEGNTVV

[5] = molecular target: T4, Sphingosine 1-phosphate receptor 2; assay: Dose Response Cell Based Assay for Agonists of the S1P2 Receptor of Purchased Analogues. [Related pubchem assays: 729, 843, 854, 736 ]; type: functional
[6] = A High Throughput Confirmatory Assay used to Identify Novel Compounds that Inhibit Mycobacterium Tuberculosis in the absence of Glycerol.; type: functional
[7] = molecular target: T5, RNA-binding protein pos-1 (Caenorhabditis elegans, UniProt G5EF15); assay: inhibitors of POS-1/mex-3 RNA binding, dose response, biochemical, fluorescence polarization (AID 1964);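 note: purified POS-1 fused to maltose binding protein made in E. coli; potency of compounds blocking POS-1 binding to fluorescent RNA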
T5 sequence (G5EF15 whole entry): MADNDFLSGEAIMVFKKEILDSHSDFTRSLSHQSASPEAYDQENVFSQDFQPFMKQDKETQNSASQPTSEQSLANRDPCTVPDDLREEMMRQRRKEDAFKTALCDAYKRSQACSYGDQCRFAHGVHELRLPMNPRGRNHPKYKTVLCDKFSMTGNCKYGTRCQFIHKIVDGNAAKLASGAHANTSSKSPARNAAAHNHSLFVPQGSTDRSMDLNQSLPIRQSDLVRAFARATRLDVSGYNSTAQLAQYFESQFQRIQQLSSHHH

Streptokinase A = molecular target: T6, Streptokinase A (Streptococcus pyogenes serotype M1, UniProt P10520); assay: S. pyogenes streptokinase expression inhibitors, potency, dose response, plasminogen activation absorbance, OD405 (AID 1914); type: functional, Streptococcus pyogenes M1 GAS;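 note: secreted streptokinase activity via plasminogen activation per viability signal from cell pellet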
T6 sequence (P10520 whole entry): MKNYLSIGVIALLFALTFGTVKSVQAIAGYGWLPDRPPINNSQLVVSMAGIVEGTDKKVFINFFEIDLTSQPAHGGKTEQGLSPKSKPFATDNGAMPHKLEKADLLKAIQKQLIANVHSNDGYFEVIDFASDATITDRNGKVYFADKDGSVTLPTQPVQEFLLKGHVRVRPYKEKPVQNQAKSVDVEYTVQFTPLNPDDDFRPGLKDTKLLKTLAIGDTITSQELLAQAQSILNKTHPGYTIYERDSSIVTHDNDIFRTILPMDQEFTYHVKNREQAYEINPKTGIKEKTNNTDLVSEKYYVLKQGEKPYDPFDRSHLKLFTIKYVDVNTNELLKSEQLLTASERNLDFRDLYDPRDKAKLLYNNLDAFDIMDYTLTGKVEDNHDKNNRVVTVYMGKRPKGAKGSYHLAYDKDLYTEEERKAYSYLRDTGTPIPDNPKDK

[8] = molecular target: Heat shock protein HSP 90-alpha (Homo sapiens, UniProt P07900); type: functional, organism-based
14-3-3 protein gamma = 14-3-3 protein gamma (Homo sapiens, UniProt P61981); assay: modulators of 14-3-3 gamma client binding – dose response (AID 711); type: functional
Sequence of 14-3-3 protein gamma (P61981 whole entry): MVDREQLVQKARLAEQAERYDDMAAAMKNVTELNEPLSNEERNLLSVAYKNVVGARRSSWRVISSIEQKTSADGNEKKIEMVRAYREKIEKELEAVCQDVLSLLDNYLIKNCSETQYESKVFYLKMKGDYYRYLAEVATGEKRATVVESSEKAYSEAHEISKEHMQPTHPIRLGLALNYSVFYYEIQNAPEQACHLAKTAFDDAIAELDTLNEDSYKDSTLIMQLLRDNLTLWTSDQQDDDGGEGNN

[9] = system: Streptococcus sp. 'group A'; assay: growth inhibition of control SK(-) GAS strain, dose response, counter-screen for streptokinase expression inhibitor project, luminescence, kanamycin, BacTiterGlo, confirmation (AID 1900); type: functional, organism-based
Streptococcus = assay: Group A Streptococcus viability loss, dose response, counter-screen for streptokinase expression inhibitor project, luminescence, BacTiterGlo (AID 1915); type: functional, organism-based;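 note: potency for reduction of bacterial viability or growth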
[10] = molecular target: T7, Zinc finger protein mex-5 (Caenorhabditis elegans, UniProt Q9XUB2); assay: MEX-5/TCR-2 RNA interaction inhibitors, dose response, biochemical, C. elegans, fluorescence polarization (AID 1960)
T7 sequence (Q9XUB2 whole entry): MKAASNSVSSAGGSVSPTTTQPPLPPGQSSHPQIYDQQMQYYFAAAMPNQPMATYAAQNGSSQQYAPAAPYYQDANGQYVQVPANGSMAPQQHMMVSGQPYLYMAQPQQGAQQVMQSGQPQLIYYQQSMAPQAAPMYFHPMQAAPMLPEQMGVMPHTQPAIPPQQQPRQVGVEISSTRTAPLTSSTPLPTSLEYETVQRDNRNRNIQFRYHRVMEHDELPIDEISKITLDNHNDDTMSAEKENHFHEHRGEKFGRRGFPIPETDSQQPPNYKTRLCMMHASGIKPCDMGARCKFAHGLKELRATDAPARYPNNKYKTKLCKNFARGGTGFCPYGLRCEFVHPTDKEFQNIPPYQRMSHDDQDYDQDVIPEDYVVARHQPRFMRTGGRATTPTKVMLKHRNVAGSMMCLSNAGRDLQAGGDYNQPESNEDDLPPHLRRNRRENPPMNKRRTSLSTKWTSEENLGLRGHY

[11] = molecular target: T8, Tyrosyl-DNA phosphodiesterase 2 (Homo sapiens, UniProt O95551); assay: human TDP2 enzyme inhibitors, dose response, biochemical, epi absorbance, IC50 (AID 743297)
T8 sequence (O95551 whole entry): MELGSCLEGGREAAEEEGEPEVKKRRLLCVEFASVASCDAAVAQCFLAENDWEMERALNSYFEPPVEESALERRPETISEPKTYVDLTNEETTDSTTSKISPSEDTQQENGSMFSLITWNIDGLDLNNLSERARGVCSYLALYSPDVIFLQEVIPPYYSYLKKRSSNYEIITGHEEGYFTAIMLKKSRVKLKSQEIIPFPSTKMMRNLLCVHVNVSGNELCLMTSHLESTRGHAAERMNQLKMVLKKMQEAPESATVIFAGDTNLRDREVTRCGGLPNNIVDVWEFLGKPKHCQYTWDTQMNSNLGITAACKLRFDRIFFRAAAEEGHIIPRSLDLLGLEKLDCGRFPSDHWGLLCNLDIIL

Caspase-6 = molecular target: T9, Caspase-6 (Homo sapiens, UniProt P55212); assay: human caspase-6 inhibitors, dose response, biochemical, VEID-R110 fluorescence, cherry-pick (AID 720632)
T9 sequence (P55212 whole entry): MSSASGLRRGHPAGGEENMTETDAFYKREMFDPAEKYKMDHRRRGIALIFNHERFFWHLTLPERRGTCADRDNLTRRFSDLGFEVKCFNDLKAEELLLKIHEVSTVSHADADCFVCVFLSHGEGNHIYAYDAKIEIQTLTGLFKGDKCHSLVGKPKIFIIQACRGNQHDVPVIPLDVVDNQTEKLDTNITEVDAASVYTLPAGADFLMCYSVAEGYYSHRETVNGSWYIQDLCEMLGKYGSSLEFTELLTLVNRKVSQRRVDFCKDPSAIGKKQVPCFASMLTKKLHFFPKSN

[12] = molecular target: Serine/threonine-protein phosphatase PP1-alpha catalytic subunit (Homo sapiens, UniProt P62136); assay: PP1 phosphatase inhibitors, dose response, biochemical, fluorescence (AID 2394)
Sequence of Serine/threonine-protein phosphatase PP1-alpha catalytic subunit (P62136 whole entry): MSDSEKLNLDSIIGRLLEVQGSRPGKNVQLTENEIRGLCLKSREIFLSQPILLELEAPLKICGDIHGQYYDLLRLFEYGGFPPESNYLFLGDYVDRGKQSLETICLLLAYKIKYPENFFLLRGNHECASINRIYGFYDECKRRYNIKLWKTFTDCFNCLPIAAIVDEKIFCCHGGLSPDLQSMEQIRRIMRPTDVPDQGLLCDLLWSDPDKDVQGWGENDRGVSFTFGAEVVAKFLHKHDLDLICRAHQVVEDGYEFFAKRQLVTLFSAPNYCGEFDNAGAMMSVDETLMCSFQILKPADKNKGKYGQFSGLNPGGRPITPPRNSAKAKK

[13] = molecular target: Serine/threonine-protein phosphatase (Homo sapiens, UniProt Q9BPW0); assay: PP5 phosphatase inhibitors, dose response, biochemical, fluorescence (AID 2395)
Sequence of Serine/threonine-protein phosphatase (Q9BPW0 whole entry): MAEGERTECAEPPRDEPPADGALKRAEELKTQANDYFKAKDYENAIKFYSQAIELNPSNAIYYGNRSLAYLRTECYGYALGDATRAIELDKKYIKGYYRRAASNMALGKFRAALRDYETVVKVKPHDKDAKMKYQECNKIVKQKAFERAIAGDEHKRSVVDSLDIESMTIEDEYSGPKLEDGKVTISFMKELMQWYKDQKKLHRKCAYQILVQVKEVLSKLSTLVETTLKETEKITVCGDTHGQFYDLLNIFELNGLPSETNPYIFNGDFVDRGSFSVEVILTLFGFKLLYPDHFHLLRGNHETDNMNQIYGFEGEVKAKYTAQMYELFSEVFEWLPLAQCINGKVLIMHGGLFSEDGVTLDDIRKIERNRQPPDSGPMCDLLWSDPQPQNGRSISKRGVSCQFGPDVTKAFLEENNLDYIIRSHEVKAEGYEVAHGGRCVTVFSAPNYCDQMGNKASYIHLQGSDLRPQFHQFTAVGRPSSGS

[14] = molecular target: Voltage-gated inwardly rectifying potassium channel KCNH2 (Homo sapiens, UniProt Q12809); assay: hERG protection from proarrhythmic block, potency, dose response, cell-based, thallium flux (AID 2121); type: ADME
Sequence of Voltage-gated inwardly rectifying potassium channel KCNH2 (Q12809 whole entry): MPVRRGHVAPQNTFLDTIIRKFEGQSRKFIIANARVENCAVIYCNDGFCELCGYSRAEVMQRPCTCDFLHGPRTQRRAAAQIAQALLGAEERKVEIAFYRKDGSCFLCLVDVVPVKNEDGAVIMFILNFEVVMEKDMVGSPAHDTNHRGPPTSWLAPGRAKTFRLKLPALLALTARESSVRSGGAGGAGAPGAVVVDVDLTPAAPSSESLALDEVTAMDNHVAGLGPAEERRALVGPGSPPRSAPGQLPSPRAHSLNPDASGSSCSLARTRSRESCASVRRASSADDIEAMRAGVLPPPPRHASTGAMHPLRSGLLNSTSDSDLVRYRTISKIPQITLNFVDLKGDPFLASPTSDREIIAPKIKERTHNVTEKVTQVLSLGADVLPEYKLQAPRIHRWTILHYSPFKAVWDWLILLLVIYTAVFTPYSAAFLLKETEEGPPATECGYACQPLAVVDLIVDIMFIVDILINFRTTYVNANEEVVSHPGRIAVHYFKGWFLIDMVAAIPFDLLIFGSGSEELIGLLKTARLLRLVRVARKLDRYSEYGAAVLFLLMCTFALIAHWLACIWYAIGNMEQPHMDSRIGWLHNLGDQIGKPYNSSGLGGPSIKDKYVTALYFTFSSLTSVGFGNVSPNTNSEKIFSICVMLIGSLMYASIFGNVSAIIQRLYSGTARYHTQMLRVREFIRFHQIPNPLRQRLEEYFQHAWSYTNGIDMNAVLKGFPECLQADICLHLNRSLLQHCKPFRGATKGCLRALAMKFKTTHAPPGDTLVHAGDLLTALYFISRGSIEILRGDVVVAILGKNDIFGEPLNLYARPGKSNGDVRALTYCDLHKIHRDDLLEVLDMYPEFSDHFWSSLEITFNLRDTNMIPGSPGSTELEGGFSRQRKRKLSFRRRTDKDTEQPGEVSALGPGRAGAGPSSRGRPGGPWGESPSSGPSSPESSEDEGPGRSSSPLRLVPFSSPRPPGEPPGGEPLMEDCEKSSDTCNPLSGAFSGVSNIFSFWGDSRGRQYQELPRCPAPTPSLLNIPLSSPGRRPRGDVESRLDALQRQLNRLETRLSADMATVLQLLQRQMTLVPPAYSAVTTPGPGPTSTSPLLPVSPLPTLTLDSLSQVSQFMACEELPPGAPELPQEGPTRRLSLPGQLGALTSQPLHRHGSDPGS

Sequence of Complement C1s subcomponent (P09871 16-437 limits assumed): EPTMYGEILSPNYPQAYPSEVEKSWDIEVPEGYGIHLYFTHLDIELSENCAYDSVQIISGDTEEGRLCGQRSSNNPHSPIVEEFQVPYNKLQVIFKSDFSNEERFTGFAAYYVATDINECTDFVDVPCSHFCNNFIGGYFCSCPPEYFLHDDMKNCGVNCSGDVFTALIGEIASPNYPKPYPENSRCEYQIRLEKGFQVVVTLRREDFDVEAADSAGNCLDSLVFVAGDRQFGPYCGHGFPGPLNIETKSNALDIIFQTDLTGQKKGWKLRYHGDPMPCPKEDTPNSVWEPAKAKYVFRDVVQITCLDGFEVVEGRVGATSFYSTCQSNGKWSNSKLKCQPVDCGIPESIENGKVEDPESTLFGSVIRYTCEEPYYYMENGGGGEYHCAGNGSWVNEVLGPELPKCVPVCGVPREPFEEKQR
Sequence of Complement C1s subcomponent (P09871 438-688 limits assumed): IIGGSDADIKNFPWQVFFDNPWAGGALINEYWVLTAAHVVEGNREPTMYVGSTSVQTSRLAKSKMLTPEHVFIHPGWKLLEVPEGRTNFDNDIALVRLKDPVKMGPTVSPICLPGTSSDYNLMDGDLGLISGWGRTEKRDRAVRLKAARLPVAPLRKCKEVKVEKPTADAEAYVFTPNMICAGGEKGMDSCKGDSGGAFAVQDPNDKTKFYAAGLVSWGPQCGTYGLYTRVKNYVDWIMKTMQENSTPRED

## Cc1nc2ccc(NC(=O)N(C(C)C)C(C)C)cc2s1
[1]
  IC50: > 100 µM (active)

## O=c1oc(-c2ccco2)nc2ccccc12
[2]
  IC50: > 50 µM (not active)

## Cc1ccc(SCC2=NNC(=O)C2)cc1
Aspartyl aminopeptidase
  IC50: > 73.5 µM (not active)
[3]
  AC50: 3.72 µM (active)
Leucine aminopeptidase
  IC50: 1.77 µM (active)
Protein RecA
  EC50: 1.01 µM (active)
Procathepsin L
  IC50: > 59.6 µM (not active)

## Cc1cc(C(=O)CN2C(=O)CCC2=O)c(C)n1Cc1ccccc1
[4]
  EC50: 2.85 µM (active)
[5]
  EC50: 1.2 µM (active)

## Cc1nnc(SCc2ccccc2Cl)n(N)c1=O
[6]
  IC50: > 100 µM (active)

## Nc1nonc1C(=O)NCC/N=C/c1cc(Cc2ccccc2)cc(Br)c1O
[7]
  EC50: > 300 µM (not active)
Streptokinase A
  EC50: > 150 µM (not active)
[8]
  AC50: 1.24 µM (active)
14-3-3 protein gamma
  IC50: > 50 µM (not active)
[9]
  EC50: 5.35 µM (active)
Streptococcus
  EC50: 9.66 µM (active)
[10]
  EC50: > 300 µM (not active)

## Oc1nc(Nc2ccccc2)cc2cc(Br)ccc12
[3]
  AC50: > 120 µM (inactive)
[11]
  IC50: 32.2 µM (inactive)
Caspase-6
  AC50: 6.04 µM (active)
Protein RecA
  EC50: 7 µM (active)
[12]
  IC50: 46.9 µM (not active)
[13]
  IC50: > 67 µM (not active)

## CCN=C(S)N=NC1=C(O)c2cccc3cccc1c23
[14]
  EC50: 0.26 µM (active)
